We go through two compounds from patent US20230194472A1, “MICRORNA ANALYSIS USING TUNNELING CURRENT” (Osaka University, priority 2019, published 2023).

The subject of test [1] is 5-fluorouracil (5-FU) resistant strain of colon cancer cell strain DLD-1. The test can be described thus: IC50 measurement on 5-fluorouracil resistant strain derived from DLD-1. It is filed as cell-based. The conditions noted are these: Homo sapiens; DLD-1 maintained 6 months or longer in the presence of 5-fluorouracil; confirmed resistant strain; read-out: IC50 with respect to 5-fluorouracil for the cultured cells.

The test system of test [2] is trifluridine (FTD) resistant strain of colon cancer cell strain DLD-1. The test can be described thus: IC50 measurement on trifluridine resistant strain derived from DLD-1. Conditions: Homo sapiens; DLD-1 maintained 6 months or longer in the presence of trifluridine; confirmed resistant strain; read-out: IC50 with respect to trifluridine for the cultured cells. The class given is cell-based. The method, then: Quantitative analysis of a microRNA was performed by tunneling current measurement. Colon cancer cell strain (DLD1) and 5-fluorouracil (5-FU) or trifluridine (FTD) resistant strains were used as samples.
Cancer cell strain DLD-1 obtained from a cell bank was maintained in a culture for 6 months or longer in the presence of trifluridine or 5-fluorouracil (Aldrich-Sigma) (about […]). The maintained culture was passaged about twice a week to maintain 60 to 80% confluence at 37° C. in a
DMEM medium supplemented with 10% serum on a plastic dish.

What is called IC50 is the concentration that gives 50% inhibition. Regarding `O=c1[nH]cc(F)c(=O)[nH]1` [5-fluorouracil], in test [1], the IC50 was determined as 300 µM.

Regarding `O=c1[nH]c(=O)n([C@H]2C[C@H](O)[C@@H](CO)O2)cc1C(F)(F)F` [trifluridine], the IC50 in test [2] came out at 300 µM.
